Assay results reported in PubChem BioAssay (NCI).
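Dose response: 5 concentrations. Exposure: 48 h. Format: 96-well plates. Endpoint: linear interpolation; highest concentration if not reached. GI50 marks 50% less growth. TGI is the concentration that stops growth completely.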

How the values were obtained:
Test in all cases: growth of human tumour cells (NCI), 48 h
786-0 renal = tested on: 786-0 renal
HCT-15 colon = tested on: HCT-15 colon
HL-60(TB) leukemia = tested on: HL-60(TB) leukemia
OVCAR-5 ovarian = tested on: OVCAR-5 ovarian
SK-MEL-28 melanoma = tested on: SK-MEL-28 melanoma
SN12C renal = tested on: SN12C renal
SR leukemia = tested on: SR leukemia
TK-10 renal = tested on: TK-10 renal
U251 CNS = tested on: U251 CNS
LOX IMVI melanoma = tested on: LOX IMVI melanoma
SW-620 colon = tested on: SW-620 colon
NCI/ADR-RES ovarian = tested on: NCI/ADR-RES ovarian

SMILES	TGI (786-0 renal)	TGI (HCT-15 colon)	TGI (HL-60(TB) leukemia)	TGI (OVCAR-5 ovarian)	TGI (SK-MEL-28 melanoma)	TGI (SN12C renal)	TGI (SR leukemia)	TGI (TK-10 renal)	TGI (U251 CNS)	TGI (LOX IMVI melanoma)	TGI (SW-620 colon)	TGI (NCI/ADR-RES ovarian)	GI50 (HL-60(TB) leukemia)
CCOC(=O)CC[C@@H](NC(=O)c1ccc(N[C@@H]2c3cc4c(cc3C(c3cc(OC)c(O)c(OC)c3)C3C(=O)OC[C@@H]32)OCO4)cc1)C(=O)OCC (some centres undefined)	> 10 µM	0.233 µM	0.05 µM	0.404 µM	0.53 µM	0.0897 µM	> 10 µM	0.375 µM	0.123 µM	–	–	–	–
CC(c1cccc2ccccc12)/[N+]([O-])=C/c1ccccc1 (centres undefined)	> 100 µM	–	> 100 µM	> 100 µM	> 100 µM	–	–	> 100 µM	> 100 µM	> 100 µM	> 100 µM	–	–
CC1[C@@H](OCc2ccccc2)COC(=O)N1Cc1ccccc1 (some centres undefined)	> 100 µM	> 100 µM	–	> 100 µM	> 100 µM	> 100 µM	> 100 µM	> 100 µM	> 100 µM	> 100 µM	> 100 µM	> 100 µM	–
CN(C)CCO/N=C1/C=C2CC[C@H]3[C@@H]4CC[C@H](O)[C@@]4(C)CC[C@@H]3[C@@]2(C)CC1	27.9 µM	47.7 µM	–	> 100 µM	35.1 µM	32.8 µM	19.6 µM	28.6 µM	27.5 µM	60.2 µM	36.1 µM	17.1 µM	–
Cc1c2c(n(CCc3ccccc3)c1C)NN=C(C#N)S2(=O)=O	> 100 µM	> 100 µM	–	> 100 µM	> 100 µM	> 100 µM	> 100 µM	> 100 µM	> 100 µM	> 100 µM	> 100 µM	> 100 µM	–
C=CCOCn1ccc(=O)[nH]c1=O	> 100 µM	> 100 µM	> 100 µM	–	> 100 µM	> 100 µM	> 100 µM	> 100 µM	–	> 100 µM	> 100 µM	–	–
COC(=O)[C@H](Cc1ccccc1)NC(=O)N1CCN(C(=O)N[C@@H](Cc2ccccc2)C(=O)OC)CCN(C(=O)N[C@@H](Cc2ccccc2)C(=O)OC)CC1	> 100 µM	> 100 µM	> 100 µM	> 100 µM	> 100 µM	> 100 µM	–	> 100 µM	> 100 µM	> 100 µM	> 100 µM	> 100 µM	–
CC1N(C)C(=O)OC12CCN(CCCC(=O)c1ccc(F)cc1)CC2 (centres undefined)	> 100 µM	> 100 µM	> 100 µM	> 100 µM	> 100 µM	> 100 µM	–	> 100 µM	> 100 µM	> 100 µM	> 100 µM	> 100 µM	–
CC1=NN(C(=O)Cc2ccccc2)C(=O)/C1=C\C=C\c1ccccc1	> 100 µM	> 100 µM	> 100 µM	> 100 µM	> 100 µM	> 100 µM	> 100 µM	> 100 µM	–	> 100 µM	> 100 µM	–	–
COc1ccc2c3ccc4c(c3n(C)c2c1)C(=O)c1ccccc1C4=O	> 100 µM	> 100 µM	> 100 µM	–	> 100 µM	> 100 µM	> 100 µM	–	> 100 µM	–	> 100 µM	–	–
COC(=O)CC1C(=O)OCc2c1cc1n(c2=O)Cc2c-1nc1ccccc1c2OC (centres undefined)	> 100 µM	> 100 µM	> 100 µM	> 100 µM	> 100 µM	> 100 µM	40.8 µM	> 100 µM	> 100 µM	> 100 µM	> 100 µM	–	–
CCOP(=O)(OCC)/C(C#N)=C/c1ccco1	> 100 µM	> 100 µM	> 100 µM	> 100 µM	> 100 µM	> 100 µM	> 100 µM	> 100 µM	> 100 µM	> 100 µM	> 100 µM	–	–
CCC1(N=[N+]=[N-])C(=O)Nc2cc(C)ccc2C1=O (centres undefined)	> 100 µM	> 100 µM	53.6 µM	> 100 µM	> 100 µM	> 100 µM	–	> 100 µM	> 100 µM	> 100 µM	> 100 µM	–	–
COc1ccc(C2C(Cl)C(=O)N2NC(=O)Cc2ccccc2)cc1 (centres undefined)	> 100 µM	> 100 µM	> 100 µM	> 100 µM	> 100 µM	> 100 µM	> 100 µM	> 100 µM	> 100 µM	> 100 µM	> 100 µM	–	–
CC(C)(C)[C@H]1CO[C@]2(C)[C@@H]3C[C@@H]3C(=O)N12	> 100 µM	> 100 µM	> 100 µM	> 100 µM	> 100 µM	> 100 µM	> 100 µM	> 100 µM	> 100 µM	> 100 µM	> 100 µM	–	–
O=c1cc(-c2cccc(OC(F)(F)F)c2)[nH]c2cc3c(cc12)OCO3	0.75 µM	2.66 µM	0.0315 µM	> 100 µM	> 100 µM	> 100 µM	–	> 100 µM	0.188 µM	–	> 100 µM	0.236 µM	–

SMILES	TGI (786-0 renal)	TGI (HCT-15 colon)	TGI (HL-60(TB) leukemia)	TGI (OVCAR-5 ovarian)	TGI (SK-MEL-28 melanoma)	TGI (SN12C renal)	TGI (SR leukemia)	TGI (TK-10 renal)	TGI (U251 CNS)	TGI (LOX IMVI melanoma)	TGI (SW-620 colon)	TGI (NCI/ADR-RES ovarian)	GI50 (HL-60(TB) leukemia)
CNC(=O)CCNC(=O)CCC(=O)OC	> 100 µM	–	–	> 100 µM	> 100 µM	> 100 µM	–	> 100 µM	> 100 µM	–	> 100 µM	> 100 µM	–
COc1ccc(CN(CCc2c[nH]c3ccccc23)Cc2ccc(OC)cc2)cc1	12.6 µM	> 100 µM	–	9.62 µM	> 80.4 µM	2.24 µM	> 100 µM	3.97 µM	–	–	> 22 µM	9.79 µM	–
COC[n+]1cc2cc(OC)c(OC)cc2c2ccc3cc(OC)c(OC)cc3c21	> 100 µM	> 100 µM	> 100 µM	> 100 µM	> 100 µM	> 100 µM	–	> 100 µM	> 100 µM	> 100 µM	> 100 µM	–	–
CC(C)CCC[C@@H](C)C1CCC2[C@@H]3CCC4CC(CCC=C(c5cc(Cl)c(OC(=O)c6ccccc6)c(C(=O)O)c5)c5cc(Cl)c(OC(=O)c6ccccc6)c(C(=O)O)c5)CC[C@]4(C)C3CC[C@@]21C (some centres undefined)	75.2 µM	> 100 µM	> 100 µM	> 100 µM	–	> 100 µM	–	> 100 µM	> 100 µM	–	> 100 µM	> 100 µM	–
CN(C)CCNc1ccc2c(=O)n(CCN(C)C)c(=O)n3c4ccc(N)cc4c(=O)c1c23	1.18 µM	1.08 µM	0.278 µM	0.844 µM	0.819 µM	0.306 µM	–	6.13 µM	0.988 µM	0.283 µM	0.637 µM	2.28 µM	–
CSc1cc(Cl)c(C)cc1S(=O)(=O)NC(=O)NNc1ccc(F)c(Cl)c1	> 100 µM	> 100 µM	–	> 100 µM	> 100 µM	> 100 µM	> 100 µM	–	> 100 µM	> 100 µM	> 100 µM	> 100 µM	–
O=C(c1ccncc1)n1nc(-c2ccccc2)c(N=Nc2ccc([N+](=O)[O-])cc2)c1-c1ccccc1	> 100 µM	–	> 100 µM	–	> 100 µM	> 100 µM	> 100 µM	> 100 µM	–	–	> 100 µM	–	–
Cc1cc(Cl)ccc1N=NC(=O)NNc1ccc(Cl)cc1C	29.9 µM	25.8 µM	45.8 µM	30.7 µM	30.7 µM	30.1 µM	80.7 µM	38.3 µM	31.4 µM	30.6 µM	30.2 µM	–	–
[N-]=[N+]=NC1C(Br)C(=O)NC(=O)N1[C@H]1C[C@H](O)[C@@H](CO)O1 (some centres undefined)	> 100 µM	–	> 100 µM	> 100 µM	> 100 µM	> 100 µM	–	> 100 µM	> 100 µM	> 100 µM	> 100 µM	–	–
CC1(O)/C(=N/O)CC2CC1C2(C)C (centres undefined)	> 100 µM	> 100 µM	> 100 µM	> 100 µM	> 100 µM	> 100 µM	–	> 100 µM	> 100 µM	> 100 µM	> 100 µM	–	–
COc1ccc(OC)c2nc3c(C(=O)NCCN(C)C)cccc3nc12	> 76.3 µM	> 51.5 µM	16.5 µM	> 78.2 µM	22.2 µM	> 36.1 µM	–	46.8 µM	28.6 µM	4.91 µM	21.7 µM	> 61.1 µM	–
COC12C=CC(CC1)C1C(=O)c3c(C)c(C)n(C)c3C(=O)C12 (centres undefined)	> 100 µM	> 100 µM	–	> 100 µM	–	–	> 100 µM	> 100 µM	> 100 µM	> 100 µM	> 100 µM	> 100 µM	–
Cc1cc2oc(=O)[nH]c(=S)c2c(C)c1C	> 100 µM	> 100 µM	> 100 µM	–	> 100 µM	> 100 µM	> 100 µM	> 100 µM	> 100 µM	> 100 µM	> 100 µM	–	–
CCN(CC)Cc1cc(Nc2c3ccccc3nc3c2[nH]c2ccccc23)ccc1O	2.8 µM	3.25 µM	–	3.64 µM	3.47 µM	6.22 µM	1.01 µM	8.61 µM	2.79 µM	2.57 µM	3.43 µM	–	–
C=C[C@H]1CN2CCc3c([nH]c4c([C@H]5CCCN5C)c(O)ccc34)[C@@H]2C[C@@H]1C[C@H]1c2[nH]c3ccccc3c2CCN1C	2.77 µM	2.3 µM	0.564 µM	3.26 µM	3.3 µM	3.04 µM	–	3.36 µM	2.92 µM	2.4 µM	2.93 µM	3.38 µM	0.0562 µM
